Here are results for three molecules from patent US6663859B2, “Compositions for enhancing the immune response” (Bioenergy, Inc., priority 2000, dated 2003).

One data set deals with various cell cultures. The conditions noted are these: 12.5 to 50 mM; Marini et al 1985; cited from earlier work.
The nature of data set [1]: Viability of HL-60 cells (trypan dye exclusion). Format: cell-based, human. As to conditions: human, HL-60 cells; for viability at 96 h: Table 1, 96 h incubation, RA 1.0 μmol/L, ribose 10 mmol/L. The text has this: (§1) For the in vitro studies, HL-60 cells (American Type Culture Collection, Manassas, Va.), an immortal human lymphocyte cell line, at approximately passage twenty were maintained between 2.0×10^5 cells/ml in RPMI 1640 medium containing HEPES buffer (Cellgro, Mediatech Inc., Herdon, Va.), 2 mmol/L L-glutamine (Cellgro), 1% antimycotic (Cellgro), 10% heat treated fetal bovine serum (FBS: GibcoBRL; Life Technologies, Baltimore, Md.), and 0.1% gentamicin (GibcoBRL).
(§2) Experimental flasks were initiated at a concentration of 2.5×10^5 cells/ml. Differentiation of HL-60 cells was induced using all-trans retinoic acid (RA) prepared in 95% ethanol. RA was added to flasks at a concentration of 1.0 μmol/L such that the ethanol concentration added to the flask was less than 0.1%. D-Ribose preparations were made by dissolving powdered ribose (Bioenergy, Minneapolis, Minn.) in RPMI medium followed by sterile filtration.
(§3) The specificity of ribose, time and dose response was examined. The doses of ribose were 1, 5, 10, 25 and 50 mmol/L. In experiments in which one concentration of ribose was used, 10 mmol/L was the dose chosen. The effect of timing of the dose was explored by adding ribose at various times after the addition of the retinoic acid. Specificity was examined by substituting glucose, to eliminate the nonspecific effects of ribose as a substrate for glycolysis or gluconeogenesis, or change in osmolarity.
(§4) Following ninety-six hours of incubated (or as specified), cells were harvested, counted by hemocytometer and viability assessed using trypan dye exclusion. For growth and viability determinations, cells were counted three times within one experiment. Results shown were from at least three experiments. Cells were washed twice with phosphate buffered salt solution (PBS) and brought to a concentration of 2.0×10^7 cells/ml PBS.

The test system of data set [2] is HL-60 cells. The experiment in a line: Viability of HL-60 cells (trypan dye exclusion). The conditions noted are these: summary of Table 1. Format: cell-based, human.
From the text: as §1, §2, §3, §4

For data set [3] the following is noted: healthy males; U.S. Pat. No. 6,159,942; cited from earlier work.
For data set [4], the system named is HL-60 cells. Kind of data set: Cell surface markers of maturity (CD11b, CD117) on HL-60 cells. The class given is cell-based, human. As to conditions: for expression of cell surface marker reactive with CD11b antibody: FIG. 1. Here is the method: Cell samples for the detection of cell surface molecules were prepared for flow cytometry in 12×17 mm capped conical tubes. To each tube, 30 μl of PBS containing 2% FBS was added. To each of triplicate tubes, a phycoerythrin (PE) labeled antibody (PharMingen, San Diego, Calif.) was added: 20 μl of CD1 lb, 20 μl of CD117, or 20 μl of isotype control (Mouse IgG1,κ). Fifty microliters of prepared cell suspension were added to each tube, followed by gentle mixing. Tubes were placed on ice for forty-five minutes after which 2 ml of cold PBS containing 2% FBS were added to each tube. Tubes were centrifuged (Jouann, at 300×g for 10 minutes) at approximately 5° C. and supernatant removed. One ml of cold 0.5% paraformaldehyde solution was added to the pellet and tubes were vortexed immediately. Prior to analysis, fixed cells were stored in the dark at approximately 4° C. for a period no longer than one week. Samples were analyzed on FACScan. Data were analyzed using WinMDI Software (Scripps Institute, build 1301-19-200, San Diego, Calif.).
Differentiation is accompanied by changes in the surface markers CD117 and CD11b. CD117 is a tyrosine kinase receptor that is expressed in high quantities on undifferentiated cells, while CD11b is a cell adhesion molecule expressed in high quantities on differentiated cells. After harvest, aliquots of the ribose and glucose control cells were allowed to differentiate with retinoic acid as above. An ELISA assay was set up with antibodies against CD117 or CD11b.

A further data set deals with weanling Swiss ICR mice. Kind of data set: In vivo loading with ribose, planned immune response and pathogen challenge studies. The conditions noted are these: expected result. Details: species or system mouse. An excerpt: For the in vivo studies, weanling Swiss ICR mice (three weeks old) were fed a fully nutritious, casein-based diet (AIN 93G).
This pilate study will be followed by a broader study with ten animals per groups. Popliteal lymphoproliferation, delayed-type hypersensitivity (DTH) and thymic and splenic lymphocyte proliferation will be tested. To determine popliteal lymphoproliferation, the popliteal node will be excised and weighed after antigen injection into the hind-leg footpad. DTH can be assessed by measuring ear swelling after sensitization and stimulation with the prop antigen dinitrofluorobenzene. Thymic and splenic proliferation will be determined from cells isolated from the thymus and spleen and pulsed with tritiated thymidine. These four measures are all T-cell responses.
Another group of animals will be fed as above. […] T-cell numbers, proliferation and migration, B-cell numbers, NK cell numbers and migration, neutrophil numbers, migration and oxidative burst will be determined. […] Cells will be quantitated by flow cytometry, oxidative burst will be determined spectrophotometrically and proliferation by incorporation of tritiated thymidine. Cell migration will be determined by flow cytometry as the percentage of cells. In addition, the activity of myeloperoxidase, a degradative enzyme specific to neutrophils, can be measured in lung tissue to determine this cell's migration. […]

The test system of data set [5] is HL-60 cells. The experiment in a line: Cellular proliferation of HL-60 cells (hemocytometer count). The class given is cell-based, human. The conditions noted are these: for reduction in cell growth compared to control HL-60 cells: 96-hour incubation; for Cell Growth (10^5 cells/ml): Table 1, 96 h incubation, initial 2.5×10^5 cells/ml, RA 1.0 μmol/L, ribose 10 mmol/L; for change in cell number over the 96-hour incubation period: initial cell density 2.5×10^5.
From the text: as §1, §2, §3, §4

Data set [6] deals with HL-60 cells. The experiment in a line: Respiratory burst (superoxide anion, ferricytochrome c reduction, PMA stimulated). Format: cell-based, human. As to conditions: for increase in rate of superoxide generation compared to HL-60 control cells: FIG. 3. Here is the method:
Specific cells undergo an increase in oxygen uptake when presented with appropriate stimuli, such as invading microorganisms or phorbol ester. The cells utilize this oxygen to produce a series of free radicals that kill the invading microorganism. Production of free radicals occurs via an enzyme called NADPH oxidase. Free radical production is measured spectrophotometrically by a change in color of ferricytochrome c.
The ability of cells to produce superoxide anion was measured by the reduction of ferricytochrome c via a microtiter plate (Levy et al (1990)). Fifty microliters of cells (1×10^7 cells/ml) previously incubated with retinoic acid, ribose or glucose were plated in triplicate wells of a microtiter plate. Each well contained 10 μl of 1.5 mol/L ferricytochrome c substrate and 100 μl of DPBD containing 1 mmol/L glucose. Cells were stimulated to produce superoxide anion by addition of 10 μl of 1.6 μmol/L phorbol 12-myristate 13-acetate (PMA). A kinetic reading on dual wavelengths of 540-490 nM was taken using a Molecular Devices microtiter plate reader (UVMax, Menlo Park, Calif.). Change in absorbance was measured over ten minutes. In order to ensure that reduction of ferricytochrome was the result of superoxide anion, experimental samples were incubated with 10 μl of bovine erythrocyte superoxide dismutase (7500 units/ml). […] Respiratory burst was expressed as the change in optical density/10^6 cells.

In the next data set the test system is thymus cells. The experiment in a line: PHA-stimulated thymus cell proliferation (tritiated thymidine). Format: cell-based, mouse. Here is the method:
(§5) Mice are the species of choice for studies of the immune response because of the numerous nutritional and interventional studies that have been performed on mice. Details of its immune response are well studied and the inbred lines used eliminate any genetic differences. Spleens and thymus were removed from weanling Swiss ICR mice and cell suspensions prepared. The spleen and thymus cells were plated in a 96-well plate and various levels of ribose added to each well in triplicate. Phytohaemagglutinin (PHA), a T-cell stimulator, was added and the cells incubated for 48 hours. Tritiated Thymidine was then added, the cells harvested 24 hours later, and radioactivity incorporated was determined by liquid scintillation counting.

Data set [7] deals with HL-60 cells. The experiment in a line: ATP determination in HL-60 cells. The class given is cell-based, human. The conditions noted are these: HL-60 control about five μmoles per 10^9 cells. The method, then:
Determination of ATP was performed using a kit purchased from Sigma Diagnostics (St. Louis, Mo.) with slight modifications. 1.0 ml of 12% trichloroacetic acid (TCA) and 1.0 ml of prepared cell suspension (1×10^7 cells/ml) were combined, vortexed and placed on ice for five minutes. Tubes were then centrifuged (Jouann, at 2000×g for 8 minutes) to obtain a clear supernatant. The following reagents were then added into vials containing 0.3 mg NADH: 1.0 ml phosphoglyceraldehyde buffered solution, 1.5 ml water, and 0.15 ml cell supernatant. Samples were distributed into two tubes. One tube was used to obtain an initial spectrophotometric absorbance at 340 nm. Fifteen μl of GAPD/PGK enzyme mixture were added to the second tube and read after ten minutes. Changes in absorbance were calculated and results were expressed as μmol of ATP per 1×10^9 cells.

A further data set has as its system spleen cells. The experiment in a line: PHA-stimulated spleen cell proliferation (tritiated thymidine). Format: cell-based, mouse. The method, then:
as §5

The conditions of data set [8]: as much as 20 gm; cited from earlier work.
[9] abbreviates: 10 mM ribose, cells differentiated with retinoic acid.

Each structure is given as a SMILES string.

The viability is the share of living cells, or the viability signal relative to a control. Low readings indicate more harm to the cells, high ones less harm to the cells.

With `O=C[C@H](O)[C@H](O)[C@H](O)CO` [D-Ribose], in the data set with various cell cultures, the “effect on incorporation of tritiated thymidine / metabolic processes” value is “deeply derange metabolic processes”. This molecule displayed a viability at 96 h in data set [1] of 86.3%. For the same molecule, the “change in viability versus control” value in the data set on HL-60 cells [2] was “slight reductions in viability”. Further, the “energy level (skeletal muscle ATP, power output)” value in [3] was “enhances the energy level”. Moreover, in the data set with HL-60 cells [4] (setting [9]), the “increase in CD11b” value was “threefold increase” and the “reduction in CD117” value was 30%. Besides, the “expression of cell surface marker reactive with CD11b antibody” value in the data set with HL-60 cells [4] (ribose added to RA) is “increased further”. Besides, the “immature cell surface marker recognized by CD117 antibody” value with HL-60 cells [4] (FIG. 2, ribose added to RA) is “reduced”. In the data set with weanling Swiss ICR mice, the “immune response parameters after diet supplementation and pathogen challenge” value is listed as “benefit the immune response”. Further, in the data set on HL-60 cells [5], the “reduction in cell growth compared to control HL-60 cells” value turned out to be 30%, the “Cell Growth (10^5 cells/ml)” value is 6.68 +/− 1.29 10^5 cells/ml and the “change in cell number over the 96-hour incubation period” value is “nearly tripled in number”. Besides, the “increase in rate of superoxide generation compared to HL-60 control cells” value in the data set with HL-60 cells [6] is “no significant increase”. The thymus cell proliferation result in the data set on thymus cells (low levels of ribose) was “slight, but non-significant stimulation”. The thymus cell proliferation entry in the data set on thymus cells (ribose above 5 mM) is given as “tended to inhibit proliferation”. The “change in ATP concentration versus HL-60 control” value in the data set on HL-60 cells [7] is “slightly increased”. The spleen cell proliferation entry in the data set with spleen cells (low levels of ribose) was “slight, but non-significant stimulation”. In addition, the spleen cell proliferation result in the data set with spleen cells (ribose above 5 mM) is “tended to inhibit proliferation”. In addition, the tolerability result in data set [8] is “well tolerated”.
For `CC1=C(/C=C/C(C)=C/C=C/C(C)=C/C(=O)O)C(C)(C)CCC1` [RA, all-trans retinoic acid], the viability at 96 h in data set [1] stood at 84.5%. The molecule further gave a viability at 1 μmol/L in data set [1] (Table 2, mean ± SD, n = 5) of 82.6 ± 3.3%. Also, the “change in viability versus control” value in the data set on HL-60 cells [2] is “slight reductions in viability”. The “expression of cell surface marker reactive with CD11b antibody” value in the data set on HL-60 cells [4] (ribose added to RA) is recorded as “high level of expression”. Further, the “CD117 (%)” value with HL-60 cells [4] (Table 2, immature cell marker, mean ± SD, n = 5) is listed as 33.4 ± 9.5^A %. Also, the “CD11b (%)” value in the data set on HL-60 cells [4] (Table 2, mature cell marker, mean ± SD, n = 5) is recorded as 35.7 ± 7.5^B %. For the same molecule, in the data set on HL-60 cells [5], the “reduction in cell growth compared to control HL-60 cells” value came to 30%, the “Cell Growth (10^5 cells/ml)” value is given as 7.01 +/− 2.14 10^5 cells/ml and the “change in cell number over the 96-hour incubation period” value is recorded as “nearly tripled in number”. Further, the Growth (cell/ml) in the data set with HL-60 cells [5] (Table 2, mean ± SD, n = 5) was 727000 ± 102000 cells/mL. Also, the “increase in rate of superoxide generation compared to HL-60 control cells” value with HL-60 cells [6] was 5.5 fold. Also, in the data set with HL-60 cells [6] (Table 2, mean ± SD, n = 5), the “Respiratory Burst (% of RA control)” value is given as 100^B % of RA control.
Turning to `[2H]C(=O)C[C@H](O)[C@H](O)CO` [deoxy-D-Ribose, reference compound], the “effect on incorporation of tritiated thymidine / metabolic processes” value with various cell cultures was “deeply derange metabolic processes”.
